From the kinase profiling compilation of Christmann-Franck et al. (2016)
“And” between values parts separate entries of the source, which are not always exact repeats. Equal values may be shown once.

Tests used:
Test in all cases: radiometric filter-binding kinase assay, Kinase HotSpot
Conditions in all cases: compound 0.5 µM; ATP 10 µM
AURKA (human) = AURKA (human) (UniProt O14965)
CAMK2G (human) = CAMK2G (human) (UniProt Q13555)
CAMKK1 (human) = CAMKK1 (human) (UniProt Q8N5S9)
CAMKK2 (human) = CAMKK2 (human) (UniProt Q96RR4)
CDK1 CCNB1 (human) = CDK1 CCNB1 (human) (UniProt P06493+P14635)
CDK5 CDK5R1 p35 (human) = CDK5 CDK5R1 p35 (human) (UniProt Q00535+Q15078)
CDK9 CCNK (human) = CDK9 CCNK (human) (UniProt O75909+P50750)
Chain of CDK9 CCNK (human) (O75909 whole entry, looked up): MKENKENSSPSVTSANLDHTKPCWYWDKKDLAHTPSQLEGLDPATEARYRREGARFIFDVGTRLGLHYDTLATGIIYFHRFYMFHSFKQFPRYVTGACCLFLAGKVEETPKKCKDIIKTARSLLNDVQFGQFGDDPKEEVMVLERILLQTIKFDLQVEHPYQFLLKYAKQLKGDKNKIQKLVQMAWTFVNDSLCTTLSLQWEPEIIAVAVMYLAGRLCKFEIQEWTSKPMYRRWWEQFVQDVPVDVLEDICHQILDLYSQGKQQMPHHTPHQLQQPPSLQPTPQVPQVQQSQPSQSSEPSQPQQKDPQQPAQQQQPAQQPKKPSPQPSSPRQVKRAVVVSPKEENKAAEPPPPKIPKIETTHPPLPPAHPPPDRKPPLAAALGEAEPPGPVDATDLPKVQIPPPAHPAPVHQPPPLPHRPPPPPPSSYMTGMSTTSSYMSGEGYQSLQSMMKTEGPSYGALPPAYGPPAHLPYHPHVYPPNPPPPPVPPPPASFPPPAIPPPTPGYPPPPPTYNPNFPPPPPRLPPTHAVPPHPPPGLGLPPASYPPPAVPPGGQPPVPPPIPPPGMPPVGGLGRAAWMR
Chain of CDK9 CCNK (human) (P50750 whole entry, looked up): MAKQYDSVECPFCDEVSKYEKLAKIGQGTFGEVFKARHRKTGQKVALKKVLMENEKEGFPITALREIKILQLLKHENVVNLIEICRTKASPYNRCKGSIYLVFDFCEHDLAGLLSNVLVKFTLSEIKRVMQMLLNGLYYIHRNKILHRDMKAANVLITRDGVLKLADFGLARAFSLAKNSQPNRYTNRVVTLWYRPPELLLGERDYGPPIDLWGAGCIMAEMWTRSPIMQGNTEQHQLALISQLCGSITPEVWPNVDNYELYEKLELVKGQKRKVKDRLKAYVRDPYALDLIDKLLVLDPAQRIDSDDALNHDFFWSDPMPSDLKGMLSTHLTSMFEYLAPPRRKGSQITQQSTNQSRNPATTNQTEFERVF

CHEK2 (human) = CHEK2 (human) (UniProt O96017)
CSNK1G2 (human) = CSNK1G2 (human) (UniProt P78368)
DAPK3 (human) = DAPK3 (human) (UniProt O43293)
Chain of DAPK3 (human) (O43293 whole entry, looked up): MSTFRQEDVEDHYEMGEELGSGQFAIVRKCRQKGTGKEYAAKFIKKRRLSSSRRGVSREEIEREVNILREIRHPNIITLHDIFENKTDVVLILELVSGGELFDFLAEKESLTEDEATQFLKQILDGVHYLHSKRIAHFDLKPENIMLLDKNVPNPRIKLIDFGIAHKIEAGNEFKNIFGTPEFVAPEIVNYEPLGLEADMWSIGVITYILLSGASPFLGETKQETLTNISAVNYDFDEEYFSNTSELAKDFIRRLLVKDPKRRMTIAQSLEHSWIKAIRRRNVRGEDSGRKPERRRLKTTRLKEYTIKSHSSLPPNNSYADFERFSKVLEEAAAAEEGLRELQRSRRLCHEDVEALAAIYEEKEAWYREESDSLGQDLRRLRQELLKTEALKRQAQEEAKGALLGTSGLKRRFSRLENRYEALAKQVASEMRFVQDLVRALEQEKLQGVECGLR

DYRK1B (human) = DYRK1B (human) (UniProt Q9Y463)
Chain of DYRK1B (human) (Q9Y463 whole entry, looked up): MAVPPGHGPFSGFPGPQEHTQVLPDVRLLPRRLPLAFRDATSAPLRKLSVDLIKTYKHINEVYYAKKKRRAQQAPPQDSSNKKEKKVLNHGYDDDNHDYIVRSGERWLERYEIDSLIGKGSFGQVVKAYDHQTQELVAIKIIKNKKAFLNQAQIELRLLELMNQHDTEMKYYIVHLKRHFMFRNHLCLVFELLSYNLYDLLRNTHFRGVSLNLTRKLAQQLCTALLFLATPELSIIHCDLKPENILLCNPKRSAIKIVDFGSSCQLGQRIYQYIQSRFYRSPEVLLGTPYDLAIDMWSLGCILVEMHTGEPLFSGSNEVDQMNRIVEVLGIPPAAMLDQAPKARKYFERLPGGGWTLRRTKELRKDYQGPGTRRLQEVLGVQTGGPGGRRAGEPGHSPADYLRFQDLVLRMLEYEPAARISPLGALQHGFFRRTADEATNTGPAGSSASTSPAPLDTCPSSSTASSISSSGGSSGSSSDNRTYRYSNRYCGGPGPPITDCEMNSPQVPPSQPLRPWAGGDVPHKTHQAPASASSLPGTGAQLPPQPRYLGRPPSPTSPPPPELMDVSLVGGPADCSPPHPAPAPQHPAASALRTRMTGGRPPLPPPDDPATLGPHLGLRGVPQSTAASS

EPHA1 (human) = EPHA1 (human) (UniProt P21709)
EPHA3 (human) = EPHA3 (human) (UniProt P29320)
FGFR2 (human) = FGFR2 (human) (UniProt P21802)
FGR (human) = FGR (human) (UniProt P09769)
Chain of FGR (human) (P09769 whole entry, looked up): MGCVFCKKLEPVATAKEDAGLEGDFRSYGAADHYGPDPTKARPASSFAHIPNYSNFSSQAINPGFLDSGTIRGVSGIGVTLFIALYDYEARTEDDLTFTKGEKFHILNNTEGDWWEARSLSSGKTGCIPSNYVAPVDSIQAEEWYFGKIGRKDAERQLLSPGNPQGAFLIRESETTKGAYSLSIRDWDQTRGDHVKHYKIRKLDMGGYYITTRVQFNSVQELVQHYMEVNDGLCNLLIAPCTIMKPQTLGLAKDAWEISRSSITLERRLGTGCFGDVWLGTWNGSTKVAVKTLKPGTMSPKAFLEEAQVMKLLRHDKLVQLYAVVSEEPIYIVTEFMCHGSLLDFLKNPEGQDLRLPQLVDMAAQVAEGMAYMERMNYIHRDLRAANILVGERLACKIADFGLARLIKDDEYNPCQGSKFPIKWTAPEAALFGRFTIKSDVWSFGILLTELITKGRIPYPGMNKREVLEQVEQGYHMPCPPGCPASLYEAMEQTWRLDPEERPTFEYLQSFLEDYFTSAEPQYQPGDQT

FRK (human) = FRK (human) (UniProt P42685)
FYN (human) = FYN (human) (UniProt P06241)
GRK6 (human) = GRK6 (human) (UniProt P43250)
Chain of GRK6 (human) (P43250 whole entry, looked up): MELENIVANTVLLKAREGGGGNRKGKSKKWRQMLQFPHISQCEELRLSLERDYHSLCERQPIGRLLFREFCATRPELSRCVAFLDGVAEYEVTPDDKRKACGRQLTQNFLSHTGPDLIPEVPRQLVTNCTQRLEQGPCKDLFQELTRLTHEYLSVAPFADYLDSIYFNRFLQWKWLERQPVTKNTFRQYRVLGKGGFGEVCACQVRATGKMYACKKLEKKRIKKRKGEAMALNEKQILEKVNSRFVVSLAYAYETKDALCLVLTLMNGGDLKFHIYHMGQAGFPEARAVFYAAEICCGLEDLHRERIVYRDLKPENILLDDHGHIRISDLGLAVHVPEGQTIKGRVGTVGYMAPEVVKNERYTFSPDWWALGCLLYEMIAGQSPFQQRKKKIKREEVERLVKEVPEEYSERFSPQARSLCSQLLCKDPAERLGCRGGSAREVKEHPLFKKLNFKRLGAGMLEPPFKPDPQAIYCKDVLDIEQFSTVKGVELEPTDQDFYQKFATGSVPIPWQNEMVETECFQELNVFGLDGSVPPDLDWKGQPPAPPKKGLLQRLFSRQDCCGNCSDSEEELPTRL

GSK3B (human) = GSK3B (human) (UniProt P49841)
LTK (human) = LTK (human) (UniProt P29376)
Chain of LTK (human) (P29376 whole entry, looked up): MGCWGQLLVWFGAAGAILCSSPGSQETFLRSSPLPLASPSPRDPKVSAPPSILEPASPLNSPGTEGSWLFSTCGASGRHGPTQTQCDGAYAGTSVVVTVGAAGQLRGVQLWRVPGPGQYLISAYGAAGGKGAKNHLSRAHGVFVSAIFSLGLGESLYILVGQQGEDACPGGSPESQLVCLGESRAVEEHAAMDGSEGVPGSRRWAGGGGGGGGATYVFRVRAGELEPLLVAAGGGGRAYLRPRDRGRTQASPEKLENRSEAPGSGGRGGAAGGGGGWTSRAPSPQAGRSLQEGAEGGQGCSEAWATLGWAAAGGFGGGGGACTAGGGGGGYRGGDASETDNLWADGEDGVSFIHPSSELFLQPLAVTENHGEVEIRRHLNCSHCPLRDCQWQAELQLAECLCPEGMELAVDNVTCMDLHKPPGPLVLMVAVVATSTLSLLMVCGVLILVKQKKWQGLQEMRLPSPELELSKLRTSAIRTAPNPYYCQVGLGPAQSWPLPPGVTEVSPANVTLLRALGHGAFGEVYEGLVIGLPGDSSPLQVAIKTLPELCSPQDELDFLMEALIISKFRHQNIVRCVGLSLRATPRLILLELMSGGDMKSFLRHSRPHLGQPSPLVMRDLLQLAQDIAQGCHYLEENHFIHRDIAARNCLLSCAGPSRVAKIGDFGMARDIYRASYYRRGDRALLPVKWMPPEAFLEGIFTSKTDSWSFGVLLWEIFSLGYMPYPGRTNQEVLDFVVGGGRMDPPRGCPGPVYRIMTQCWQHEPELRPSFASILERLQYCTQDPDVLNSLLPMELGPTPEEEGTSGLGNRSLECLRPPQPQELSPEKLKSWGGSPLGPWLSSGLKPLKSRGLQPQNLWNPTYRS

MAP3K2 (human) = MAP3K2 (human) (UniProt Q9Y2U5)
MAPK3 (human) = MAPK3 (human) (UniProt P27361)
MAPKAPK3 (human) = MAPKAPK3 (human) (UniProt Q16644)
MARK1 (human) = MARK1 (human) (UniProt Q9P0L2)
MELK (human) = MELK (human) (UniProt Q14680)
MYLK2 (human) = MYLK2 (human) (UniProt Q9H1R3)
MYO3B (human) = MYO3B (human) (UniProt Q8WXR4)
NTRK1 (human) = NTRK1 (human) (UniProt P04629)
Chain of NTRK1 (human) (P04629 whole entry, looked up): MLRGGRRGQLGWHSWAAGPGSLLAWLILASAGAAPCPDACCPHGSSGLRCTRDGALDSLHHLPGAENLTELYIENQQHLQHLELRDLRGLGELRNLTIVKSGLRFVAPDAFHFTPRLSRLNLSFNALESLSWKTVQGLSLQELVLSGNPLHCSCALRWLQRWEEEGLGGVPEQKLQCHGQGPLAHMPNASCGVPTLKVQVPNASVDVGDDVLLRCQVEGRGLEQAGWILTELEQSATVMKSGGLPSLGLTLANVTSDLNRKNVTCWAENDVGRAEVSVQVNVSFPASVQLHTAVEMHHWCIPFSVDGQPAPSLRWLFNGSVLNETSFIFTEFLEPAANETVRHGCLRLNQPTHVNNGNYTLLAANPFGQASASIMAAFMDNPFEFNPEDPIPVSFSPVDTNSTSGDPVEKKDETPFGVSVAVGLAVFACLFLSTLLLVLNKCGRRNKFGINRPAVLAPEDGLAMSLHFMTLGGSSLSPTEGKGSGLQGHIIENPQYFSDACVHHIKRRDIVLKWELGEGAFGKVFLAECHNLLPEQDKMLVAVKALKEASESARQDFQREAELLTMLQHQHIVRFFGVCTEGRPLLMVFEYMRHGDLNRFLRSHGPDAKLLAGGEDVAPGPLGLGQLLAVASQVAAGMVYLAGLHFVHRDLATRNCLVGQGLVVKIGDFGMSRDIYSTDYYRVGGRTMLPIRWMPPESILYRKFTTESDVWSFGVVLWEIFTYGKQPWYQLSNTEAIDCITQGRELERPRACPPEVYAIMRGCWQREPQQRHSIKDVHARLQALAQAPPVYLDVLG

PAK1 (human) = PAK1 (human) (UniProt Q13153)
PAK7 (human) = PAK7 (human) (UniProt Q9P286)
PKN1 (human) = PKN1 (human) (UniProt Q16512)
PLK3 (human) = PLK3 (human) (UniProt Q9H4B4)
PNCK (human) = PNCK (human) (UniProt Q6P2M8)
PRKCE (human) = PRKCE (human) (UniProt Q02156)
PRKCH (human) = PRKCH (human) (UniProt P24723)
PRKG1 (human) = PRKG1 (human) (UniProt Q13976)
ROS1 (human) = ROS1 (human) (UniProt P08922)
RPS6KB1 (human) = RPS6KB1 (human) (UniProt P23443)
SYK (human) = SYK (human) (UniProt P43405)
ULK1 (human) = ULK1 (human) (UniProt O75385)
ULK3 (human) = ULK3 (human) (UniProt Q6PHR2)
MAPK14 (human) = MAPK14 (human) (UniProt Q16539)

`Oc1cccc(-c2nc(N3CCOCC3)c3oc4ncccc4c3n2)c1` showed a residual activity (AURKA (human)) of 91.9%, a residual activity (CAMK2G (human)) of 100% and a residual activity (CAMKK1 (human)) of 84.6%. It also gave a residual activity (CAMKK2 (human)) of 79.8%, a residual activity (CDK1 CCNB1 (human)) of 108% and a residual activity (CDK5 CDK5R1 p35 (human)) of 101%. The residual activity (CDK9 CCNK (human)) was 96%, the residual activity (CHEK2 (human)) was 90.4% and the residual activity (CSNK1G2 (human)) was 88.1%. For the same compound, the residual activity (DAPK3 (human)) was 93.1%, the residual activity (DYRK1B (human)) was 98.9% and the residual activity (EPHA1 (human)) was 87.8%. For the same compound, the residual activity (EPHA3 (human)) was 93.7%, the residual activity (FGFR2 (human)) was 95.7% and the residual activity (FGR (human)) was 94.8%. For the same compound, the residual activity (FRK (human)) was 91.3%, the residual activity (FYN (human)) was 91.7% and the residual activity (GRK6 (human)) was 98.2%. It also gave a residual activity (GSK3B (human)) of 94.8%, a residual activity (LTK (human)) of 97.6% and a residual activity (MAP3K2 (human)) of 103%. It also gave a residual activity (MAPK3 (human)) of 94.1%, a residual activity (MAPKAPK3 (human)) of 93.9% and a residual activity (MARK1 (human)) of 97.6%. The residual activity (MELK (human)) was 75.5%, the residual activity (MYLK2 (human)) was 99% and the residual activity (MYO3B (human)) was 81.3%. The residual activity (NTRK1 (human)) was 94.9%, the residual activity (PAK1 (human)) was 97.6% and the residual activity (PAK7 (human)) was 92.8%. It also gave a residual activity (PKN1 (human)) of 101%, a residual activity (PLK3 (human)) of 94.6% and a residual activity (PNCK (human)) of 96.7%. For the same compound, the residual activity (PRKCE (human)) was 100%, the residual activity (PRKCH (human)) was 89.8% and the residual activity (PRKG1 (human)) was 109% and 96.3%. It also gave a residual activity (ROS1 (human)) of 93.1%, a residual activity (RPS6KB1 (human)) of 106% and a residual activity (SYK (human)) of 94.2%. For the same compound, the residual activity (ULK1 (human)) was 113% and the residual activity (ULK3 (human)) was 99.7%.
`Cc1ccc(Nc2nccc(N(C)c3ccc4c(C)n(C)nc4c3)n2)cc1S(N)(=O)=O` showed a residual activity (AURKA (human)) of 38.4%, a residual activity (CAMK2G (human)) of 106% and a residual activity (CAMKK1 (human)) of 72%. For the same compound, the residual activity (CAMKK2 (human)) was 98.5%, the residual activity (CDK1 CCNB1 (human)) was 99.6% and the residual activity (CDK5 CDK5R1 p35 (human)) was 99.3%. The residual activity (CDK9 CCNK (human)) was 92.7%, the residual activity (CHEK2 (human)) was 95.1% and the residual activity (CSNK1G2 (human)) was 96.9%. The residual activity (DAPK3 (human)) was 92.3%, the residual activity (DYRK1B (human)) was 93.3% and the residual activity (EPHA1 (human)) was 85%. It also gave a residual activity (EPHA3 (human)) of 94.1%, a residual activity (FGFR2 (human)) of 40.2% and a residual activity (FGR (human)) of 35.8%. For the same compound, the residual activity (FRK (human)) was 58.1%, the residual activity (GRK6 (human)) was 102% and the residual activity (LTK (human)) was 80.2%. It also gave a residual activity (MAP3K2 (human)) of 110%, a residual activity (MAPK14 (human)) of 91.2% and a residual activity (MAPK3 (human)) of 102%. The residual activity (MAPKAPK3 (human)) was 98.5%, the residual activity (MARK1 (human)) was 99.9% and the residual activity (MELK (human)) was 87.5%. It also gave a residual activity (MYO3B (human)) of 83.4%, a residual activity (NTRK1 (human)) of 91.8% and a residual activity (PAK1 (human)) of 89.1%. It also gave a residual activity (PAK7 (human)) of 95.4%, a residual activity (PKN1 (human)) of 102% and a residual activity (PLK3 (human)) of 101%. For the same compound, the residual activity (PNCK (human)) was 95.9%, the residual activity (PRKCE (human)) was 100% and the residual activity (PRKCH (human)) was 110%. For the same compound, the residual activity (PRKG1 (human)) was 103% and 95.1%, the residual activity (ROS1 (human)) was 17% and the residual activity (RPS6KB1 (human)) was 96%. The residual activity (SYK (human)) was 101%, the residual activity (ULK1 (human)) was 97.3% and the residual activity (ULK3 (human)) was 102%.
In the case of `COc1cc2ncnc(Nc3cccc(Cl)c3)c2cc1OC`, the residual activity (AURKA (human)) was 93.3%, the residual activity (CAMK2G (human)) was 97.3% and the residual activity (CAMKK1 (human)) was 92.2%. For the same compound, the residual activity (CAMKK2 (human)) was 97.5%, the residual activity (CDK1 CCNB1 (human)) was 90.3% and the residual activity (CDK5 CDK5R1 p35 (human)) was 91%. For the same compound, the residual activity (CDK9 CCNK (human)) was 106%, the residual activity (CHEK2 (human)) was 79.7% and the residual activity (CSNK1G2 (human)) was 97.1%. For the same compound, the residual activity (DAPK3 (human)) was 94.6%, the residual activity (DYRK1B (human)) was 104% and the residual activity (EPHA1 (human)) was 81.7%. It also gave a residual activity (EPHA3 (human)) of 97.9%, a residual activity (FGFR2 (human)) of 97.5% and a residual activity (FGR (human)) of 75.3%. The residual activity (FRK (human)) was 81.1%, the residual activity (FYN (human)) was 85.7% and the residual activity (GRK6 (human)) was 96.8%. It also gave a residual activity (GSK3B (human)) of 98.7%, a residual activity (LTK (human)) of 60.3% and a residual activity (MAP3K2 (human)) of 98.2%. For the same compound, the residual activity (MAPK14 (human)) was 107%, the residual activity (MAPK3 (human)) was 96.4% and the residual activity (MAPKAPK3 (human)) was 92.7%. For the same compound, the residual activity (MELK (human)) was 81.8%, the residual activity (MYLK2 (human)) was 90.1% and the residual activity (MYO3B (human)) was 81.2%. For the same compound, the residual activity (NTRK1 (human)) was 92.6%, the residual activity (PAK1 (human)) was 89.3% and the residual activity (PAK7 (human)) was 83%. The residual activity (PKN1 (human)) was 96.8%, the residual activity (PLK3 (human)) was 92.3% and the residual activity (PNCK (human)) was 89.6%. For the same compound, the residual activity (PRKCE (human)) was 97.8%, the residual activity (PRKCH (human)) was 104% and the residual activity (PRKG1 (human)) was 93.8% and 95.2%. The residual activity (ROS1 (human)) was 91.2%, the residual activity (RPS6KB1 (human)) was 88.5% and the residual activity (SYK (human)) was 86.9%. The residual activity (ULK1 (human)) was 84.7% and the residual activity (ULK3 (human)) was 77.3%.
